Test results reported in patent US10640545B2 (THE GOVERNORS OF THE UNIVERSITY OF ALBERTA, priority 2017, dated 2020).
*1 amine or outer side, *2 acyl side, *3 side chain or, on linkers, in order; H or OH if unused. Where a SMILES comes first, the peptide text is derived from it. [ ]: non-standard residue; d: D form. Phe(4-Br) = N[C@@H](Cc1ccc(Br)cc1)C(=O)O; X1 = N=C(N)NCCCN(N[*:1])C(=O)[*:2]; azaLeu = CC(C)CN(N[*:1])C(=O)[*:2]; Nle = CCCC[C@H](N)C(=O)O; Aib = CC(C)(N)C(=O)O

Key:
[1] = molecular target: T1, wild-type rat apelin receptor (Rattus norvegicus, UniProt Q9JHG3); assay: Radioligand binding, displacement of [125I]-pyr-1-apelin-13 on CHO cell membranes; conditions: for receptor binding affinity (in words): rat apelin receptor
T1 construct: expressed in transfected cells
T1 sequence (Q9JHG3 1-377): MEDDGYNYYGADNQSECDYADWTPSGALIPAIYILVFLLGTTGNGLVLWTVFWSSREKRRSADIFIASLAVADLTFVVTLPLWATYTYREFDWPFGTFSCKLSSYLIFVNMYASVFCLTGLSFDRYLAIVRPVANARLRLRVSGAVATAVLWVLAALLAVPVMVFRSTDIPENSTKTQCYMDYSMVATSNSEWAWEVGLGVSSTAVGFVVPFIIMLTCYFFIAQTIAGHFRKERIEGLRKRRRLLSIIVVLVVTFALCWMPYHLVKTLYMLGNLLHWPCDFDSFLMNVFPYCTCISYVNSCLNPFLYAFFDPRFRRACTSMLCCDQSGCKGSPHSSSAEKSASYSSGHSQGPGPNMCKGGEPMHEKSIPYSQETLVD
Description: This experiment evaluated the ability of peptides of the present embodiments to bind to the wild-type rat apelin receptor, in order to examine the impact of synthetic modification within the critical RPRL motif of the apelin peptides.
Membrane preparations from CHO cells stably expressing the wild-type rat apelin receptor-EGFP were prepared as previously described (Gerbier et al., New Structural Insights Into The Apelin Receptor: Identification Of Key Residues For Apelin binding; FASEB J. 2015, 29, 314-322; Iturrioz et. al., Development Of Original Metabolically-Stable Apelin-17 Peptides With Diuretic And Cardiovascular Effects; FASEB J. 2017, 31, 687-700.) Crude membrane preparations (1 μg total mass of membranes/assay) were incubated for 3 h at 20° C. with 0.2 nM [^125I]-pyr-1-apelin-13 (monoiodinated on Lys^8 with Bolton-Hunter reagent, Perkin Elmer, Wellesley, Mass., USA) in binding buffer (50 mM HEPES, 5 mM MgCl2 1149 pH 7.5, BSA 1%) alone or in presence of the different compounds at various concentrations. The reaction was stopped by adding 4 mL of cold binding buffer, filtered on Whatman GF/C filters and washed with 5 mL of cold binding buffer. Radioactivity was then counted using a Wizard 1470 Wallac gamma counter (Perkin Elmer, Turku, Finland). Binding experiment data were analyzed with Graph Pad Prism.

anesthetized mice = assay: Blood pressure assay in anesthetized mice; type: in vivo; conditions: 1.4 μM/kg body weight injected, SBP, DBP, MABP
Description: Synthetic peptides 8-19 were tested for blood pressure lowering abilities in anesthetized mice. Apelin peptides were injected through […], monitoring blood pressure (BP) and heart rate (HR) over 60 minutes.
Mice were anaesthetized with 1.5% isoflurane/oxygen, and body temperature was monitored and maintained at 36° C. by a heating pad. The aorta was cannulated via the right carotid artery using a PV loop catheter (Model 1.2F from Scisense, Transonic) in order to continuously record arterial blood pressure and heart rate (LabScribe 2.0, Scisense). […] Results are reported as systolic blood pressure (SBP), diastolic blood pressure (DBP), mean arterial blood pressure (MABP) and heart rate (HR).
Apelin peptides 11, 56-59 as well as the KLKB1-cleavage fragments 54 and 55 were tested for blood pressure lowering abilities in anesthetized mice.
Mice were anesthetized with 1.5% isoflurane/oxygen, and body temperature was monitored and maintained at 36° C. by a heating pad. The aorta was cannulated via the right carotid artery using a PV loop catheter (model 1.2F from Scisense, Transonic) in order to continuously record arterial blood pressure and heart rate (LabScribe 2.0, Scisense). Compounds 11, and 54-59 or 55-59 (1.4 μM/kg body weight) or the same volume of saline was injected via the right jugular vein. Results are reported as systolic blood pressure (SBP), diastolic blood pressure (DBP), mean arterial blood pressure (MABP), and heart rate (HR) shown in FIGS. 15A-D.
Apelin peptides were delivered systemically via the right internal jugular vein while blood pressure (BP) and heart rate (HR) were continuously monitored in the aorta cannulated via the right carotid artery. All N-terminally extended apelin peptides, except 58, show pronounced and time-stable blood pressure lowering effects (FIGS. 15a-d). […] This correlates with the results obtained from the Ca^2+ mobilization assay.

isolated rat hearts = assay: Langendorff isolated heart, ischemia-reperfusion injury; conditions: ex vivo heart, 30 min ischemia; for ability to rescue the heart from ischemic reperfusion injury: peptide at start of reperfusion for 10 min at 1 pM; for max/min dP/dt, LVDP and RPP compared to native isoform 2: reperfusion
Description: The ex vivo heart was assessed for a variety of parameters (heart rate (HR); left ventricle developed pressure (LVDP); maximum derivative of change in systolic pressure over time (max dP/dt); minimum derivative of change in diastolic pressure over time (min dP/dt); and rate-pressure product (RPP)) indicative of general heart function and performance (FIG. 11).
Langendorff heart perfusion and ischemia-reperfusion injury were prepared and cardiac function was measured. Mice were heparinized and anaesthetized with 1.5-2% isoflurane inhalation. The heart was excised, mounted on a Langendorff system, and perfused at a consistent pressure of 80 mmHg with modified Krebs-Henseleit solution (116 mM NaCl, 3.2 mM KCl, 2.0 mM CaCl2), 1.2 mM MgSO4, 25 mM NaHCO3, 1.2 mM KH2PO4, 11 mM glucose, 0.5 mM EDTA and 2 mM pyruvate), which was kept at 37° C. and continuously oxygenated with 95% O2 and 5% CO2 which maintained the perfusion buffer at pH 7.4. After stabilization and 10 min baseline recording, global ischemia was induced for 30 min followed by 40 min of reperfusion. Apelin 17 (2) or apelin peptides (11, 17, 18, or 19) were given at the start of reperfusion for 10 min at a concentration of 1 pM. Left ventricular functions were obtained continuously by PowerLab system (ADInstruments, Australia). Data was reported as mean value of every 5 min. Left ventricular functions were reported as: Left Ventricular Developed Pressure (LVDP); Heart rate (HR); maximum derivative of change in systolic pressure over time (max dP/dt); minimum derivative of change in diastolic pressure over time (min dP/dt); and Rate Pressure Product (RPP).

in vitro = conditions: human, plasma
NEP = NEP (Homo sapiens, UniProt P08473); assay: Neprilysin inhibition assay (degradation of 1 after preincubation with peptide); type: biochemical; design: purchased Sino Biological; conditions: preincubation of NEP with equimolar peptide
Description: This experiment investigates the ability of synthetic peptides 8-19 to inhibit the inherent proteolytic activity of NEP.
Assays were performed in duplicate (n=2) for each time point.

NEP, sequence (P08473 whole entry): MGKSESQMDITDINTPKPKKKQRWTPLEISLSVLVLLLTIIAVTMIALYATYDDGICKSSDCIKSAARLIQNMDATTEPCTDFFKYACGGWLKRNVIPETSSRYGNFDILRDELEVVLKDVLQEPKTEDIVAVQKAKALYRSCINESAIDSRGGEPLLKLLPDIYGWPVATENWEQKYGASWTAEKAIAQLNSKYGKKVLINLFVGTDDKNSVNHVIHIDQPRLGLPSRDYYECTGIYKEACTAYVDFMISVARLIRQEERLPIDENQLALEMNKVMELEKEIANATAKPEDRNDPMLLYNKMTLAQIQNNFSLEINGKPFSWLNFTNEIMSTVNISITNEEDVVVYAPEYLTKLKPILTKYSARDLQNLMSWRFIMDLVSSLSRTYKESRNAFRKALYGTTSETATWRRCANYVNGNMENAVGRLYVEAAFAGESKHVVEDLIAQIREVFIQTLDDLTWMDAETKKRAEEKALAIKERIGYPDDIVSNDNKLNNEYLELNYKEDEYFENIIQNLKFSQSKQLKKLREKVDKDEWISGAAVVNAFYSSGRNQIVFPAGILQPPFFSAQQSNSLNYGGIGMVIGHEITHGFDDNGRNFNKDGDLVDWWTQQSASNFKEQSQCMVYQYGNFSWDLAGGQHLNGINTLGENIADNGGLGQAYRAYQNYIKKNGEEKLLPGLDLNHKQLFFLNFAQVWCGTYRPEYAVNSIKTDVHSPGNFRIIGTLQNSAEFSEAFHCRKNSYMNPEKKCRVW

receptor binding affinity (in words) [1]	remaining at 0.5 h, 80 µM (in vitro)	remaining at 1 h, 80 µM (in vitro)	Ki ([1]; displacement of [125I]-pyr-1-apelin-13 (0.2 nM), CHO membranes, rat apelin receptor-EGFP, means ± SE, read-out: Affinity Ki)	SMILES	blood pressure lowering (hypotensive) effect (anesthetized mice)	ability to rescue the heart from ischemic reperfusion injury (isolated rat hearts)	max/min dP/dt, LVDP and RPP compared to native isoform 2 (isolated rat hearts)	inhibition of the proteolytic activity of NEP (NEP)
sub-nanomolar receptor affinities	82 ± 1%	68 ± 4%	–	CCCC[C@H](NC(=O)[C@@H]1CCCN1C(=O)CNC(=O)[C@H](CCCCN)NC(=O)[C@H](Cc1c[nH]cn1)NC(=O)[C@H](CO)NC(=O)N(CC(C)C)NC(=O)[C@H](CCCNC(=N)N)NC(=O)[C@@H]1CCCN1C(=O)[C@H](CCCNC(=N)N)NC(=O)[C@H](CCC(N)=O)NC(=O)[C@H](CCCNC(=N)N)NC(=O)[C@H](CCCNC(=N)N)NC(=O)[C@H](Cc1ccccc1)NC(=O)[C@@H](N)CCCCN)C(=O)NC(C)(C)C(=O)N[C@@H](Cc1ccc(Br)cc1)C(=O)O [Peptide 19] (H-KFRRQRPR[azaLeu]SHKGP[Nle][Aib][Phe(4-Br)]-OH; N-terminus and C-terminus assumed)	potent hypotensive activity that rivaled or bested that of native 2 or A2 variant 5	equivalent ability to rescue the heart from ischemic reperfusion injury compared to native isoform 2	slight improvement over the native isoform	no ability to inhibit the inherent activity of NEP
sub-nanomolar receptor affinities	96 ± 6%	94 ± 3%	0.14 ± 0.009 nM	CCCC[C@H](NC(=O)[C@@H]1CCCN1C(=O)CNC(=O)[C@H](CCCCN)NC(=O)[C@H](Cc1c[nH]cn1)NC(=O)[C@H](CO)NC(=O)[C@H](CC(C)C)NC(=O)N(CCCNC(=N)N)NC(=O)[C@@H]1CCCN1C(=O)[C@H](CCCNC(=N)N)NC(=O)[C@H](CCC(N)=O)NC(=O)[C@H](CCCNC(=N)N)NC(=O)[C@H](CCCNC(=N)N)NC(=O)[C@H](Cc1ccccc1)NC(=O)[C@@H](N)CCCCN)C(=O)NC(C)(C)C(=O)N[C@@H](Cc1ccc(Br)cc1)C(=O)O [Peptide 17, Lys-Phe-Arg-Arg-Gln-Arg-Pro-azaArg-Leu-Ser-His-Lys-Gly-Pro-Nle-Aib-paraBrPhe] (H-KFRRQRP[X1]LSHKGP[Nle][Aib][Phe(4-Br)]-OH; N-terminus and C-terminus assumed)	potent hypotensive activity that rivaled or bested that of native 2 or A2 variant 5	equivalent ability to rescue the heart from ischemic reperfusion injury compared to native isoform 2	behaving very analogously to 2	no ability to inhibit the inherent activity of NEP
